≈ marks a conversion by molar mass, not a printed value. Like-named read-outs stand apart in the source and are kept apart here.
Key:
[1] = Animal infection models (background statement); settings: in vivo
[2] = Solubility for oral absorption (background statement); type: physicochemical; settings: compared to compounds disclosed in this patent application
[3] = target: Clostridium difficile DNA gyrase (Clostridioides difficile, UniProt Q18C89); assay: DNA supercoiling inhibition assay; type: biochemical; settings: supercoiling of relaxed pBR322 DNA, 60 minutes at 37° C.
Experimental: DNA supercoiling assays (30 μL reaction) were performed in a buffer containing 15 mM Tris-HCl pH 7.5, 13% glycerol, 6 mM MgCl2, 0.1 mg/mL BSA, 70 mM KCl, 1 mM dithioerythritol, 400 ng of DNA substrate (relaxed pBR322 DNA) and different concentrations of test compounds and/or standards. The dilutions of test compounds and standards were prepared in 20% dimethylsulfoxide (DMSO) and added 3 μL/reaction. The reaction was started by adding 2 μL amounts of Clostridium difficile DNA gyrase into the reaction mixtures and reactions were allowed to proceed for 60 minutes at 37° C. A reaction was carried out by adding 3 μL of 20% DMSO instead of test compound as full reaction control, and another reaction was carried out by adding sterile water instead of the enzyme as no reaction control.
Reactions were stopped by the addition of 5 μL of 6×loading dye and were analyzed by electrophoresis through 1.0% agarose gels with 1×TAE running buffer. Gels were run at 60 V for 3 hours, stained with EtBr, and visualized by Gel Doc system (BioRad). Intensity of the supercoiled DNA bands was quantified, and the IC50 of Clostridium difficile DNA gyrase was calculated using Graph Pad Prism.

[4] = tested on: S. aureus ATCC 29213; assay: Susceptibility of bacteria, broth microdilution MIC; type: cell-based; settings: Staphylococcus aureus, ATCC29213
Experimental: The antibacterial activity of the compounds of the present invention was tested by the broth microdilution method. The assay was carried out according to the CLSI guidelines for managing the procedures of susceptibility tests: “M7-A7 Methods for Dilution Antimicrobial Susceptibility Tests for Bacteria That Grow Aerobically; Approved Standard-Seventh Edition (2006)”. Test strains were grown on appropriate agar plates overnight. A broth containing the test compound diluted serially 2-fold and diluents were dispensed at 100 μL to each well of a 96-well microplate. As a growth control, a well with a broth not containing the test compound was also prepared. Colonies grown on the plates were suspended in saline, adjusted to 0.5 McFarland (OD625=0.08 to 0.10) using a colorimeter, and then diluted 10-fold with saline. The bacterial suspension was inoculated at 4 μL into each well of the microplate using a bacterial suspension inoculation apparatus. The inoculated microplate was incubated at 35° C. overnight (about 20 hours). The growth condition was observed by the naked eye, and the minimum concentration to inhibit bacterial proliferation was defined as a minimum inhibitory concentration (MIC). The MICs of compounds disclosed herein for E. faecium, Streptococcus pneumoniae and Haemophilus influenzae are shown in Table 2, while for S. aureus in Table 3.

[5] = tested on: Clostridium difficile ATCC 43255; assay: Susceptibility of Clostridium difficile, agar dilution MIC; type: cell-based; settings: Clostridioides difficile, ATCC43255, anaerobic
Experimental: The antibacterial activity of the compounds of the present invention against Clostridium difficile clinical isolates was tested by the agar dilution method. The assay was carried out according to the CLSI guidelines for managing the procedures of susceptibility tests “M11-A8, Methods for Antimicrobial Susceptibility Testing of Anaerobic Bacteria; Approved Standard-Eighth Edition. CLSI document (2012)”.
The test strains were spread on supplemented Brucella agar (SBA) plates and grown at 36° C. under anaerobic condition for 42 to 48 hours. The test compound dilutions were prepared with Brucella broth and SBA plates containing dilution of test compound were prepared. As an anaerobic growth control, plates not containing the test compound were also prepared. Colonies grown on plates were suspended with Brucella broth to adjust the turbidity to 0.5 McFarland using a densitometer. Suspension (1-2 μL) of the test strains was inoculated onto each agar surface by using a bacterial suspension inoculation apparatus. After anaerobic incubation at 36° C. for 42 to 48 hours, absence and presence of growth of each strain were examined with unaided eye. The MIC was determined at which a marked reduction occurs in the appearance of growth on the test plate as compared to that of growth on the anaerobic control plates.

[6] = Solubility in water (JP1 / JP2 fluids); type: physicochemical; settings: thermodynamic from solid
Experimental: A 10 mmol/L solution of the test compound was prepared in DMSO and dispensed 100 μL of 10 mmol/L DMSO stock solutions into labeled glass tubes in duplicate, one for Japanese Pharmacopeia First Fluid (JP1) and second for Japanese Pharmacopeia Second Fluid (JP2). After evaporation of DMSO from each tube, 500 μL of JP1 and JP2 fluid were added in each tube, respectively. These tubes were sonicated for 1 minute and placed on shaker for 30 minutes with an interval of 30 seconds at every 5 minute. Tubes were placed in dark at room temperature for 1 hour and solution was filtered through membrane filter. The filtrate was diluted 2-fold and 10-fold. The resulting test solutions was analyzed and quantified against the standards using UPLC (standard preparation—10 mmol/L solution in DMSO is serially diluted with 50% aqueous acetonitrile solution to prepare 2 solutions; 100 μmol/L standard solution and 5 μmol/L standard solutions).

[7] = tested on: Clostridium difficile 2009155, a NAP1/027 strain; assay: Hamster CDI model; type: in vivo; settings: 0.3 mg/kg/day by oral route, 5 days
Experimental: The in vivo efficacy of test compounds were evaluated in a hamster CDI model caused by Clostridium difficile 2009155, a NAP1/027 strain. Syrine hamsters (6-8-weeks old) were primed with a single subcutaneous injection of clindamycin (30 mg/kg) 1-5 days prior to infection. Hamsters were infected by oral gavage with 1 ml of spore suspension ([…]) prepared in PBS. The drug was administered to the hamsters 6 hours post infection by oral or subcutaneous route at an interval of 24 hours for 5 days. The death and survival of the non-treated group and the drug-administered group were recorded once daily for 35 days.

[8] = tested on: P. acnes ATCC 6523; assay: Susceptibility of P. acnes, agar dilution MIC; type: cell-based; settings: Cutibacterium acnes, ATCC6523, anaerobic
Experimental: (§1) The antibacterial activity of the compounds of the present invention against P. acnes clinical isolates was tested by the agar dilution method. The assay was carried out according to the CLSI guidelines document (Clinical and Laboratory Standards Institute, 2012 & 2016). The test strains were spread on supplemented Brucella agar (SBA) plates and grown for 42 to 48 hours at 36° C. under anaerobic condition. The test compound dilutions were prepared with Brucella broth and SBA plates containing dilution of test compound were prepared. As an anaerobic growth control and to check the aerobic contamination, plates not containing the test compound were also prepared. Colonies grown on plates were suspended with Brucella broth to adjust the turbidity to 0.5 McFarland using a densitometer. Suspension (1-2 μL) of the test strains was inoculated onto each agar surface by using a bacterial suspension inoculation apparatus (multipoint inoculator). After anaerobic incubation for 42 to 48 hours at 36° C., absence and presence of growth of each strain on growth control plates and test compounds plate were examined with unaided eye. The MIC was determined at which a marked reduction occurs in the appearance of growth on the test plate as compared to that of growth on the anaerobic control plates.

[9] = tested on: P. acnes ATCC 6921; assay: Susceptibility of P. acnes, agar dilution MIC; type: cell-based; settings: Cutibacterium acnes, ATCC6921, anaerobic
Experimental: as §1

[10] = tested on: P. acnes IHMA 103740; assay: Susceptibility of P. acnes, agar dilution MIC; type: cell-based; settings: Cutibacterium acnes, IHMA103740, anaerobic
Experimental: as §1

[11] = tested on: P. acnes IHMA 775486; assay: Susceptibility of P. acnes, agar dilution MIC; type: cell-based; settings: Cutibacterium acnes, IHMA775486, anaerobic
Experimental: as §1

[12] = tested on: N. gonorrhoeae clinical isolates; assay: Susceptibility of N. gonorrhoeae, agar dilution MIC; type: cell-based
Experimental: The antibacterial activity of the compounds of the present invention against N. gonorrhoeae clinical isolates was tested by the agar dilution method [Clinical and Laboratory Standards Institute, 2016]. The test strains were spread on chocolate agar plates and grown for 20-24 h at 36° C. in 5% carbon dioxide. The test compound dilutions were prepared with broth and agar MIC plates were prepared using GC agar base supplemented with haemoglobin and 1% IsoVitaleX plates. As growth control plates not containing the test compound were also prepared. Colonies grown on plates were suspended with broth to adjust the turbidity to 0.5 McFarland using a densitometer. Suspension (1-2 μL) of the test strains was inoculated onto each agar surface by using a bacterial suspension inoculation apparatus (multipoint inoculator). After aerobic incubation for 20-24 h at 36° C. in 5% carbon dioxide, absence and presence of growth of each strain on growth control plates and test compounds plate were examined with unaided eye. The MIC was determined at which a marked reduction occurs in the appearance of growth on the test plate as compared to that of growth on the aerobic control plates.

Clostridium difficile DNA gyrase, sequence (Q18C90 entry or part of it): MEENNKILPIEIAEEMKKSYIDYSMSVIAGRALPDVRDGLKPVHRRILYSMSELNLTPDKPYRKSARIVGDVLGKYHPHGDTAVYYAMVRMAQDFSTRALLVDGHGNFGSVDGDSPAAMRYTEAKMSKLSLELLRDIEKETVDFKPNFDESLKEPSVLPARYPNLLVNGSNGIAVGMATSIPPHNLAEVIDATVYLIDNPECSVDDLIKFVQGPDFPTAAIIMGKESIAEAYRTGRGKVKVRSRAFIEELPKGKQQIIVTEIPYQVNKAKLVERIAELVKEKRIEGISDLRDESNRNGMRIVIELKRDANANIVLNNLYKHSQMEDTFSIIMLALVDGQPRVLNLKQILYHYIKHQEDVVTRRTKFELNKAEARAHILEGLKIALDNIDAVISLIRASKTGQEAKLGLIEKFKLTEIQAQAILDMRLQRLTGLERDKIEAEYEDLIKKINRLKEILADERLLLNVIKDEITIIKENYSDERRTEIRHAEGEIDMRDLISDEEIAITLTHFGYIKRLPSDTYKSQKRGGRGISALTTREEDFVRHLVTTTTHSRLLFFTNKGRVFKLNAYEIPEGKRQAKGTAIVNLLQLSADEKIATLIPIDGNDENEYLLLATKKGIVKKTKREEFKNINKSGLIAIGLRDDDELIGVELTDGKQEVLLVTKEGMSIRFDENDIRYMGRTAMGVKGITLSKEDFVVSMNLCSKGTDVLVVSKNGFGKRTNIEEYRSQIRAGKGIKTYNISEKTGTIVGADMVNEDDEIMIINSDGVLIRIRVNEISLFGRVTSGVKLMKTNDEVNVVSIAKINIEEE
Clostridium difficile DNA gyrase, sequence (Q18C89 entry or part of it): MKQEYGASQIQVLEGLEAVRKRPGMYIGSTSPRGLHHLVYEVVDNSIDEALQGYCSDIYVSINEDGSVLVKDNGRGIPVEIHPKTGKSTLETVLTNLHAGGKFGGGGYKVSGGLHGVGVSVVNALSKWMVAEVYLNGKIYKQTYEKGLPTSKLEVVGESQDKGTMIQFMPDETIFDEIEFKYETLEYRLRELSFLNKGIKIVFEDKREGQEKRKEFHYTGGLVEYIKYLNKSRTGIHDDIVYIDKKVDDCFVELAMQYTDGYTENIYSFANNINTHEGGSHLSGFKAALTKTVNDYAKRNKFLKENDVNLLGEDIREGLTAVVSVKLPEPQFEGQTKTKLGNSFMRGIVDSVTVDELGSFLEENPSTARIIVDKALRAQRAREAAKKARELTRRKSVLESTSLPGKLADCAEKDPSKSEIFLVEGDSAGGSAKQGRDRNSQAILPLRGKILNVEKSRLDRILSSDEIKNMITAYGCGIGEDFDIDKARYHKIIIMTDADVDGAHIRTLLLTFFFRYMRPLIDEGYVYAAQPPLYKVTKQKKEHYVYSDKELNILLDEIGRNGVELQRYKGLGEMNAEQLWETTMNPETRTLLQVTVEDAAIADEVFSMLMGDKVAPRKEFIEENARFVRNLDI

Row | Compound | efficacy in animal infection models [1] | solubility [2] | IC50 [3] [nM] | MIC [4] [µg/mL] | MIC [5] [µg/mL] | solubility at 30 min ([6]; Japanese Pharmacopeia First Fluid (JP1), pH 1.2, simulated gastric fluid, read-out: Solubility JP1) [µg/mL] | solubility at 30 min ([6]; Japanese Pharmacopeia Second Fluid (JP2), pH 6.8, aqueous buffer, read-out: Solubility JP2) [µg/mL] | survival on day 35 [7] [%] | MIC [8] [µg/mL] | MIC [9] [µg/mL] | MIC [10] [µg/mL] | MIC [11] [µg/mL] | MIC [12] [µg/mL]
1 | CCO[C@H]1CN(c2nncs2)CC[C@H]1NC(=O)c1nc(Cl)c(CC)[nH]1 [Compound No. 150] | not being efficacious | low | – | – | – | – | – | – | – | – | – | – | –
2 | CCc1[nH]c(C(=O)N[C@@H]2CCN(c3nnc(C(C)(O)CO)s3)C[C@@H]2OC)nc1Cl (stereo in doubt) [Compound No. 10, 4-Chloro-N-[(3S,4R)-1-{5-[(2R)-1,2-dihydroxypropan-2-yl]-1,3,4-thiadiazol-2-yl}-3-methoxypiperidin-4-yl]-5-ethyl-1H-imidazole-2-carboxamide] | – | – | 60.7 | 1 (≈ 2.25 µM) | 0.06 (≈ 0.135 µM) | 887 (≈ 1990 µM) | 429 (≈ 964 µM) | 100 | 0.125 (≈ 0.281 µM) | 0.125 (≈ 0.281 µM) | 0.125 (≈ 0.281 µM) | 0.125 (≈ 0.281 µM) | 0.125 (≈ 0.281 µM)

Reference: patent publication US10399968B2, “Hydroxyalkyl thiadiazole derivatives” (Daiichi Sankyo Company, Limited, priority 2015, dated 2019)
